In patent US9012446B2, “Amino-oxazines and amino-dihydrothiazine compounds as beta-secretase modulators and methods of use” (Amgen Inc., priority 2010, dated 2015):

Experiments:
BACE = BACE (Homo sapiens, UniProt P56817); experiment: In vitro enzymatic BACE FRET assay; type: biochemical; conditions: average IC50, enzyme assay; read-out: BACE 1 FRET assay
Description: In Vitro Enzymatic BACE FRET (Fluorescence Resonance Energy Transfer) Assay (Enzyme Assay Data in the Example Table I) The assay buffer used in this screen is 0.05 M acetate, pH 4.2, 10% DMSO final, 100 uM genapol (which is a nonionic detergent, below its Critical Micelle Concentration). The beta secretase enzyme (0.2 nM) is pre-incubated for one hour with inhibitors, typically in about 1 uL of DMSO according to a serial dilution, are added thereto. This assay is effectively started by the addition of FRET substrate (50 nM) and the combination is incubated for one hour. The FRET assay is terminated with by addition of Tris buffer, which raises the pH to neutrality, and the fluorescence is determined. The FRET substrate is a peptide with commercially available fluorophore and quencher, on opposite sides of the BACE cleavage site. Proteolytic cleavage of the FRET substrate releases quenching of fluorescence (excitation 488 nm and emission […]).

Aβ40 = experiment: In vitro BACE cell-based assay (Aβ40 sandwich ELISA, cells stably expressing APP); conditions: HEK cells
Description: In Vitro BACE Cell-Based Assay […] Cells stably expressing Amyloid Precursor Protein (APP) were plated at a density of 40K cells/well in 96 well plates (Costar). The cells were cultivated for 24 hours at 37° C. and 5% CO2 in DMEM supplemented with 10% FBS. The test compounds were then added to cells in 10-point dose response concentrations with the starting concentration being either 100 μM or 10 μM. The compounds were diluted from stock solutions in DMSO and the final DMSO concentration of the test compounds on cells was 0.1%. […] The IC50 of the compound was calculated from the percent of control or percent inhibition of Aβ40 as a function of the concentration of the test compound. The sandwich ELISA to detect Aβ40 was performed in 96 well microtiter plates, which were pre-treated with goat anti-rabbit IgG (Pierce). […] The optimal concentration for the pAb40 antibody was 3 μg/ml in Superblock/TBS (Pierce) that was supplemented with 0.05% Tween 20 (Sigma). […] Cellular supernatants were incubated with the capture antibody for 3 h at 4° C., followed by 3 wash steps in TBS-tween (0.05%). The detecting antibody incubation was for 2 h at 4° C., again followed by the wash steps as described previously. The final readout of the ELISA is Time-Resolved Fluorescence (counts per minute) using Delfia reagents Streptavidin-Europium and Enhancement solutions (Perkin Elmer) and the Victor 2 multilabel counter (Perkin Elmer).

[1] = Homo sapiens, HEK293, average IC50, cell assay

Chain of BACE (P56817 46-501, species assumed): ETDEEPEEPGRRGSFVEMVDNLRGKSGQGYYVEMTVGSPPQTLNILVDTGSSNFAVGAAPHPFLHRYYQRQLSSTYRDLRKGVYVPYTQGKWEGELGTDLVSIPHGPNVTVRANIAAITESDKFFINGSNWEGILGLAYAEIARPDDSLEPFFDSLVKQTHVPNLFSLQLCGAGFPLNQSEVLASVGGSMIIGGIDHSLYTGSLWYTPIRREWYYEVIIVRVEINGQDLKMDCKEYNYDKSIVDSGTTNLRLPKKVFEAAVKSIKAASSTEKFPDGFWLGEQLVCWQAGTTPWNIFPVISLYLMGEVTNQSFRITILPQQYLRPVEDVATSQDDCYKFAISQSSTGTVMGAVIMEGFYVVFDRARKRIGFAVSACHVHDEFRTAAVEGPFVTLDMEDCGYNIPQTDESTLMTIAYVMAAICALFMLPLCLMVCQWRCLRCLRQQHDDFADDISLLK

IC50 (BACE) [nM]	IC50 (Aβ40; [1]) [nM]	IC50 (Aβ40; average IC50, cell assay) [nM]	Structure (SMILES)
3.7	4.1		NC1=N[C@@]2(COC1)c1cc(-c3cccnc3F)ccc1Oc1cnc([C@@H]3CCCOC3)cc12 [compound 81]
43	121		CC1(COc2cc(F)c3c(c2)[C@@]2(COCC(N)=N2)c2cc(-c4cccnc4F)ccc2O3)COC1 [compound 82]
0.4	0.4		CC1(COc2cc(F)c3c(c2)[C@]2(COCC(N)=N2)c2cc(-c4cccnc4F)ccc2O3)COC1 [compound 83]
39.7	101		NC1=N[C@@]2(COC1)c1cc(-c3cccnc3F)ccc1Oc1c(F)cc(N3CC[C@@H](F)C3)cc12 [compound 85]
2	1.3		CC1(C#Cc2cnc3c(c2)[C@]2(COCC(N)=N2)c2cc(-c4cccnc4F)ccc2O3)COC1 [compound 87]
332	198		CC1(C#Cc2cnc3c(c2)[C@@]2(COCC(N)=N2)c2cc(-c4cccnc4F)ccc2O3)COC1 [compound 88]
0.6	1.9		NC1=N[C@@]2(COC1)c1cc(-c3cc(Cl)ccc3F)ccc1Oc1ncc(N3CC[C@@H](F)C3)cc12 [compound 92]
0.7	3.9		NC1=N[C@@]2(COC1)c1cc(-c3cc(Cl)ccc3F)ccc1Oc1ncc(N3CCOCC3)cc12 [compound 93]
1.3	1.3		NC1=N[C@@]2(COC1)c1cc(-c3cc(Cl)ccc3F)ccc1Oc1ncc(N3CC4CCC(C3)O4)cc12 [compound 94]
0.5	1.2		CC1(C#Cc2cnc3c(c2)[C@]2(COCC(N)=N2)c2cc(-c4cc(Cl)ccc4F)ccc2O3)COC1 [compound 95]
1.2	0.6		CC(C)(C)C#Cc1cnc2c(c1)[C@]1(COCC(N)=N1)c1cc(-c3cncnc3)c(F)cc1O2 [compound 96]
419	273		CC(C)(C)C#Cc1cnc2c(c1)[C@@]1(COCC(N)=N1)c1cc(-c3cncnc3)c(F)cc1O2 [compound 97]
257	635		NC1=NC2(CCS1)c1cc(-c3cncnc3)ccc1Oc1ccc(-c3cncnc3)cc12 [compound 98]
81.8	118		NC1=NC2(CCS1)c1cc(-c3cccnc3)ccc1Oc1ccc(-c3cccnc3)cc12 [compound 99]
49.6		184	NC1=N[C@]2(CCO1)c1cc(-c3cccnc3F)ccc1Oc1cnc(-c3cccnc3F)cc12 [compound 100]
14.6	45.9		NC1=NC2(CCO1)c1cc(-c3cccnc3F)ccc1Oc1c2cc(-c2cccnc2F)nc1F (stereo not drawn) [compound 101]
1740	1900		NC1=N[C@]2(CCO1)c1cc(-c3cccnc3F)ccc1Oc1c2cc(-c2cccnc2F)nc1F [compound 104]
20.6	24.2		NC1=N[C@@]2(CCO1)c1cc(-c3cccnc3F)ccc1Oc1c2cc(-c2cccnc2F)nc1F [compound 105]
1740	2640		NC1=N[C@]2(CCO1)c1cc(-c3cccnc3F)ccc1Oc1c2cc(-c2ccnc(F)c2)nc1F [compound 106]
0.6	0.6		NC1=N[C@@]2(CCO1)c1cc(-c3cccnc3F)ccc1Oc1c2cc(C2=CCOCC2)nc1F [compound 108]
2820	579		NC1=N[C@]2(CCO1)c1cc(-c3cccnc3F)ccc1Oc1cnc(C3=CCOCC3)cc12 [compound 109]
0.5	1.5		NC1=N[C@@]2(COC1)c1cc(-c3cncc(F)c3)ccc1Oc1cnc(-c3cncc(F)c3)cc12 [compound 112]
0.5	1		NC1=N[C@@]2(COC1)c1cc(-c3cncc(F)c3)ccc1Oc1cnc(-c3ccnc(F)c3)cc12 [compound 113]
0.6	0.8		NC1=N[C@@]2(COC1)c1cc(-c3cccnc3)ccc1Oc1cnc(-c3ccnc(F)c3)cc12 [compound 116]
0.3	1.6		NC1=N[C@@]2(COC1)c1cc(-c3cnccc3F)ccc1Oc1cnc(-c3ccc(F)c(F)c3)cc12 [compound 117]
0.4	0.6		NC1=N[C@@]2(COC1)c1cc(-c3cnccc3F)ccc1Oc1cnc(-c3ccnc(F)c3)cc12 [compound 118]

IC50 (BACE) [nM]	IC50 (Aβ40; [1]) [nM]	IC50 (Aβ40; average IC50, cell assay) [nM]	Structure (SMILES)
0.5	0.2		NC1=N[C@@]2(COC1)c1cc(-c3cncc(F)c3)ccc1Oc1cnc(C3=CCCOC3)cc12 [compound 121]
2.2	3.3		COc1cc2c(cn1)Oc1ccc(-c3cccnc3F)cc1[C@@]21COCC(N)=N1 [compound 123]
6.8	5.1		COc1cc2c(cn1)Oc1ccc(-c3cccnc3)cc1[C@@]21COCC(N)=N1 [compound 124]
2.2	12.4		COc1cc2c(cn1)Oc1ccc(-c3cc(F)ccc3Cl)cc1[C@@]21COCC(N)=N1 [compound 125]
0.3	1.4		CC(C)(C#N)COc1cc2c(cn1)Oc1ccc(-c3cc(Cl)ccc3F)cc1[C@@]21COCC(N)=N1 [compound 127]
17.3	109		NC1=N[C@@]2(COC1)c1cc(Br)ccc1Oc1c2cc(N2CCC(F)(F)CC2)nc1F [compound 128]
0.7	12.2		NC1=N[C@]2(COC1)c1cc(C3=CCCOC3)ccc1Oc1ccc(-c3cccnc3F)cc12 [compound 130]
0.7	2.5		CC#Cc1cncc(-c2ccc3c(c2)[C@@]2(COCC(N)=N2)c2cc(C4=CCOCC4)cc(F)c2O3)c1 [compound 131]
0.3	0.4		NC1=N[C@@]2(COC1)c1cc(-c3cncnc3)ccc1Oc1c(F)cc(C3=CCCOC3)cc12 [compound 133]
102	587		CC(C)(C)COc1ccc2c(c1)[C@]1(COCC(N)=N1)c1cc(Br)ccc1O2 [compound 135, (3R)-2′-bromo-7′-(2,2-dimethylpropoxy)-6H-spiro[1,4-oxazine-3,9′-xanthen]-5-amine]
1130	1140		COc1ccc2c(c1)C1(CCSC(N)=N1)c1cc(-c3cncnc3)ccc1O2 (stereo not drawn) [compound 137]
12.8	6.9		CC(C)(C)C#Cc1cc2c(cn1)Oc1ccc(-c3cncc(F)c3)cc1[C@@]21CCOC(N)=N1 [compound 139]
10.8	3.4		NC1=N[C@@]2(CCO1)c1cc(-c3cncc(F)c3)ccc1Oc1cnc(-c3cccnc3)cc12 [compound 140]
9.5	22.5		NC1=N[C@@]2(CCO1)c1cc(-c3cccnc3F)ccc1Oc1cnc(-c3cncc(Cl)c3)cc12 [compound 141]
6.2	4.2		NC1=N[C@@]2(CCO1)c1cc(-c3cncc(F)c3)ccc1Oc1cnc(-c3cncc(F)c3)cc12 [compound 142]
5.7	3.7		NC1=N[C@@]2(CCO1)c1cc(-c3cncc(F)c3)ccc1Oc1cnc(C3=CCOCC3)cc12 [compound 143]
13.2	35.4		NC1=N[C@@]2(CCO1)c1cc(-c3cccnc3F)ccc1Oc1cnc(C3CCOCC3)cc12 [compound 144]
132	132		NC1=N[C@]2(CCO1)c1cc(-c3cccnc3F)ccc1Oc1cnc(-c3cccnc3)cc12 [compound 147]
4.6	4.1		NC1=N[C@@]2(CCO1)c1cc(-c3cccnc3F)ccc1Oc1cnc(-c3cccnc3)cc12 [compound 148]
13	10.3		NC1=NC2(CCO1)c1cc(-c3cccnc3)ccc1Oc1cnc(-c3cccnc3)cc12 (stereo not drawn) [compound 150, 3,7-di-3-pyridinyl-5′,6′-dihydrospiro[chromeno[2,3-c]pyridine-5,4′-[1,3]oxazin]-2′-amine]
7.3	3.4		NC1=NC2(CCO1)c1cc(-c3cccnc3)ccc1Oc1cnc(C3=CCOCC3)cc12 (stereo not drawn) [compound 151]
238	108		NC1=N[C@]2(CCO1)c1cc(-c3cccnc3F)ccc1Oc1cnc(-c3cncc(F)c3)cc12 [compound 152]
784	78.1		NC1=N[C@]2(CCO1)c1cc(-c3cccnc3)ccc1Oc1c(F)cc(C3=CCOCC3)cc12 [compound 157]
941	393		CC(C)(F)COc1cc(F)c2c(c1)[C@@]1(CCOC(N)=N1)c1cc(-c3cccnc3)ccc1O2 [compound 158]
616	71.3		NC1=N[C@]2(CCO1)c1cc(-c3cccnc3)ccc1Oc1c(F)cc(C3=CCCOC3)cc12 [compound 159]
